Laboratory results published in patent publication US12496298B2, “Natural killer cells” (Imperial College Innovations Limited, priority 2017, dated 2025).

What was measured:
HPCs = assay: Live cells / toxicity in mouse HPC culture under NK cell-producing conditions; type: cell-based
Procedure: FIG. […] At Day 9, percentage of NK cells was quantified using flow cytometry. (A) Graph showing relative mature mouse NK cell (NK1.1+ CD3−) production when 5 and 10 μM SR8278 were added on different days compared to the ‘No drug’ control. (B) Representative flow cytometry results with percentage of NK cells shown. Addition of 5 μM SR8278 is shown on the top, whereas addition of 10 μM SR8278 is shown on the bottom. […] Results were averaged from two experiments with four repeats each and the error bars represent the mean+SD. Asterisks indicate significant differences from the two annotated results (* is P≤0.01, *** is P≤0.0001 and **** is P≤0.00001) based on Mann-Whitney test.
The HPCs were plated and cultured in 24-well plates at a concentration of 5×10^5 HPCs/well in 1 ml of complete cytokine medium (Dulbecco's modified eagle medium (DMEM) (Sigma Aldrich), 10% FCS, 50 μM β-Mercaptoethanol, 10 ng/ml Flt3-ligand (FIt3L) (R&D Systems), 10 ng/ml IL-7 (R&D Systems), 100 ng/ml stem cell factor (SCF) (R&D Systems) and 1% P/S) for 2 days at 37° C., 5% CO2. […]
Cells to be analysed by flow cytometry were passed through 40 μm cell strainers to remove clumps and washed with PBS buffer, centrifuged at 800 g for 2 minutes and resuspended in 100 μl fluorescent activated cell sorting (FACS) buffer (PBS plus 1% BSA) with appropriate fluorochrome conjugated antibodies at a dilution of 1 in 300. […]

[1] = system: mouse NK cell (NK1.1+CD3−) production from HPCs; assay: In vitro development of NK cells from mouse HPCs (NK cell development assay, flow cytometry at Day 9); type: cell-based; details: for increase in NK cell production, rank among 2, 5, 10 and 20 μM: confirmation experiments (FIG. 4)
Text: FIG. 2: Timeline of NK cell development assay. HPCs were isolated and cultured plus FIt3L, IL-7 and SCF cytokines. At Day 2, they were then transferred onto OP9 stromal cells plus or minus drug in culture medium plus the IL-15 cytokine. The media of the cultures were changed at Day 5 and the cells were harvested and analysed at Day 9.
Lineage negative cells are enriched for Hematopoietic Progenitor Cells (HPCs). […] Cells were harvested on Day 9 and analysed using flow cytometry to determine the number of NK1.1^+CD3^− cells (FIG. 2). NK1.1^+ and CD3^− are two cell surface markers that can define mouse NK cells. OP9 stromal cells were readily excluded from the analysis, as the OP9 stromal cells used were GFP positive (FIG. 3B). Flow cytometry data were analysed as the fold increase, relative to the ‘No drug’ or untreated control in each experiment. This is because the absolute percentage of NK cell production varies between experiments.
Lineage negative HSCs were purified from mouse bone marrow by crushing the leg bones in Phosphate-buffered Saline (PBS) with 2% fetal calf serum (FCS) (STEMCELL Technologies), topped up to 40 ml with magnetic-activated cell sorting (MACS) buffer (PBS, 2 mM EDTA, 0.5% BSA, sterile and filtered) and centrifuged at 800 g for 2 minutes. The cells were resuspended in PE-conjugated cocktail, (20 μl of anti-B220 (RA3-6B2), anti-mouse CD2 (RM2-5, anti-Ter119 (TER119) and anti-NK.1.1 (PK136) and 5 μl of anti-CD11b (M1/70) and anti-GR-1 (RB6-8C5) antibodies (all from Bioscience)) incubated for 5 minutes at 4° C., centrifuged and resuspended in anti-PE microbeads for 15 minutes at 4° C. Cells were washed in MACS buffer and passed through MACS columns. This allowed negative selection of HPCs. Following lineage depletion, 50 μl of the cells was analysed using flow cytometry to check for purity.
The HPCs were plated and cultured in 24-well plates at a concentration of 5×10^5 HPCs/well in 1 ml of complete cytokine medium (Dulbecco's modified eagle medium (DMEM) (Sigma Aldrich), 10% FCS, 50 μM β-Mercaptoethanol, 10 ng/ml Flt3-ligand (FIt3L) (R&D Systems), 10 ng/ml IL-7 (R&D Systems), 100 ng/ml stem cell factor (SCF) (R&D Systems) and 1% P/S) for 2 days at 37° C., 5% CO2. The HPCs were then transferred onto OP9 cells at 4500 cells/well for 96-well plate experiments and 3×10^4 cells/well for 24-well plate experiments in mouse NK cells differentiation medium (Alpha-MEM (Sigma Aldrich) plus 20% FCS, 1% P/S and 30 ng/ml IL-15). Cells were left in culture at 37° C., 5% CO2 for 7 days with a change of mouse NK cells differentiation medium at day 3 or 4.
Cells to be analysed by flow cytometry were passed through 40 μm cell strainers to remove clumps and washed with PBS buffer, centrifuged at 800 g for 2 minutes and resuspended in 100 μl fluorescent activated cell sorting (FACS) buffer (PBS plus 1% BSA) with appropriate fluorochrome conjugated antibodies at a dilution of 1 in 300. Cells were stained with the following antibodies, all of which were anti-mouse and are from eBioscience unless specified: 2B4 (clone m2B4(B6) 458.1; BioLegend), CD2 (RM2-5), CD3 (17A2), CD11b (M1/70), CD19 (1D3), CD27 (LG.7F9), CD122 (TM-b1), CD127 (A7R34), B220 (RA3-6B2), ckit (ACK2), Flt3 (A2F10), Gr1 (RB6-8C5), NK1.1 (PK136), Sca1 (D7), Ter119 (TER119), NKp46 (29A1.4) anti-human CD45 (HI30), anti-human CD2 (RPA-2.10) and anti-human CD56 (CMSSB). The lineage cocktail contained B220, CD2, CD11b, Gr1, NK1.1, and Ter119. Cells were stained in the dark at 4° C. for 30 minutes and then washed with 2 ml FACS buffer, centrifuged and resuspend in 300 μl FACS buffer plus Propidium Iodide (PI) also at a dilution of 1 in 300. Flow cytometry was performed using LSRFortessa™ cell analyser (Becton Dickinson Bioscience), sorted using FACSAria (Becton Dickinson) as indicated and full data analysis was done using FlowJo Software.

**Q.** With `CCOC(=O)C1Cc2ccccc2CN1C(=O)c1ccc(SC)s1` (stereo not shown) [SR8278, 1,2,3,4-Tetrahydro-2-[[5-(methylthio)-2-thienyl]carbonyl]-3-isoquinolinecarboxylic acid ethyl ester] as the compound, how does the “toxicity to cells in culture” value (HPCs; 20 μM) read?
**A.** Its value is “toxic and killed most of the cells”.

**Q.** And the “numbers of live cells compared to 'No drug' control” value (HPCs; added at Days 0 and 1, 5 and 10 μM)?
**A.** The value was “remarkably low”.

**Q.** And the “NK cell production relative to 'No drug' control” value ([1]; 5 μM added at Day 0 (greatest effect))?
**A.** The value was “over 1.4 fold”.

**Q.** And the “increase in NK cell production, rank among 2, 5, 10 and 20 μM” value ([1]; 5 μM)?
**A.** Its value is “followed by 5 μM”.

**Q.** And the “NK cell production increase compared to 'No drug' control” value ([1]; 10 μM added Day 2, analysed Day 9, screen (FIG. 3))?
**A.** The value was “over 2.4 fold”.

**Q.** What about the “increase in NK cell production relative to 'No drug' control” value ([1]; 10 μM added on Days 0, 1 and 2) of the same compound?
**A.** Its value is “over 1.6 fold”.

**Q.** And the “increase in NK cell production, rank among 2, 5, 10 and 20 μM” value ([1]; 10 μM)?
**A.** Its value is “highest increase in NK cell production”.

**Q.** And the “number of NK cells detected” value ([1]; 20 μM added Day 2, analysed Day 9)?
**A.** The value was “reduction in the number of NK cells detected”.

**Q.** What about the “NK cell production relative to 'No drug' control” value ([1]; 5 or 10 μM added after Day 2) of the same compound?
**A.** Its value is “no significant difference”.

**Q.** And the “production of NK cells in NK cell production assays increases” value ([1]; summary in Discussion, concentration not given)?
**A.** The value was “more than 2 fold”.
